This note sets out measurements from patent US10669283B2, “Compound and pharmacologically acceptable salt thereof” (MEIJI SEIKA PHARMA CO., LTD., priority 2016, dated 2020).

The first experiment relates to PDE4. The experiment can be described thus: PDE4 inhibition, scintillation proximity assay (SPA).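 For PDE4 Inhibitory Activity (concentration for the inhibition rate of 50%): A below 100 nM B 100 to below 1000 nM C 1000 nM or more.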 Type of experiment: biochemical. Particulars: scintillation proximity assay (SPA); evaluated as classes A, B, C; read-out: PDE4 Inhibitory Activity (concentration for the inhibition rate of 50%). Here is the method: The PDE4 inhibitory activity was measured using scintillation proximity assay (SPA) as follows. A sample compound dissolved in dimethyl sulfoxide was diluted 1:10 in reaction buffer solution which contained 50 mM of Tris-HCl with pH 7.4, 8.3 mM of MgCl2, 1.7 mM of EGTA, and 3 mg/mL of bovine serum albumin (BSA). Then, 10 μL of the diluted solution was added in a 96-well assay plate. Moreover, 50 μL of PDE4 diluted 1:375 in the reaction buffer solution was added, and then 40 μL of [2,8-^3H]-adenosine-3′,5′-cyclic phosphate triethylammonium salt diluted 1:1000 in the reaction buffer solution was added. The mixture was allowed to stand at room temperature for 120 minutes. Thereafter, […] of RNA binding YSi-SPA beads suspension containing ZnSO4 was added and the mixture was allowed to stand at room temperature for 15 minutes, followed by adsorption of the enzyme reaction product to the beads. After that, the radioactivity was measured using a liquid scintillation counter for a 96-well plate. The mixture without the enzyme preparation added but only the reaction buffer solution added is a blank, and the mixture with the enzyme preparation added and only dimethyl sulfoxide added instead of the sample solution is a control.
Regarding `CC(=O)OC(c1cc(-c2nccs2)c2oc(N3CC4CCC(C3)N4)nc2c1)C(F)(F)F` (stereo not drawn) [Example 141, 1-(2-(3,8-Diazabicyclo[3.2.1]octan-3-yl)-7-(thiazol-2-yl)benzo[d]oxazol-5-yl)-2,2,2-trifluoroethyl acetate], the IC50 is < 100 nM.

As for `COc1ccc(-c2nccs2)c2oc(N3CC4CCCC(C3)N4)nc12` [Example 77, 2-(3,9-Diazabicyclo[3.3.1]nonan-3-yl)-4-methoxy-7-(thiazol-2-yl)benzo[d]oxazole], the IC50 is < 100 nM. Consider `COC(C)c1cc(-c2nccs2)c2oc(N3CC4CC(C3)N4)nc2c1` (stereo not drawn) [Example 111, 2-(3,6-Diazabicyclo[3.1.1]heptan-3-yl)-5-(1-methoxyethyl)-7-(thiazol-2-yl)benzo[d]oxazole], for which the IC50 is < 100 nM. Still for that read-out and setting: as for `CC(=O)c1ccc(-c2nccs2)c2oc(N3CC4CCC(C3)N4)nc12` [Example 245, 1-(2-(3,8-Diazabicyclo[3.2.1]octan-3-yl)-7-(thiazol-2-yl)benzo[d]oxazol-4-yl)ethan-1-one], the figure is < 100 nM; as for `N#CCOC(c1cc(-c2nccs2)c2oc(N3CC4CCC(C3)N4)nc2c1)C(F)(F)F` (stereo not drawn) [Example 153, 2-(1-(2-(3,8-Diazabicyclo[3.2.1]octan-3-yl)-7-(thiazol-2-yl)benzo[d]oxazol-5-yl)-2,2,2-trifluoroethoxy)acetonitrile], < 100 nM.

As to `OC(c1ccc(-c2nccs2)c2oc(N3CC4CCC(C3)N4)nc12)C(F)(F)F` (stereo not drawn) [Example 118, 1-(2-(3,8-Diazabicyclo[3.2.1]octan-3-yl)-7-(thiazol-2-yl)benzo[d]oxazol-4-yl)-2,2,2-trifluoroethan-1-ol], the IC50 is < 100 nM. On the same count and under the same terms, as for `OC(c1cc(-c2nccs2)c2oc(N3CC4CCC(C3)N4)nc2c1C(F)(F)F)C(F)F` (stereo not drawn) [Example 183, 1-(2-(3,8-Diazabicyclo[3.2.1]octan-3-yl)-7-(thiazol-2-yl)-4-(trifluoromethyl)benzo[d]oxazol-5-yl)-2,2-difluoroethan-1-ol], the figure is < 100 nM; as for `FC(F)(F)Oc1c(Cl)cc(-c2nccs2)c2oc(N3CC4CCC(C3)N4)nc12` [Example 1, 2-(3,8-Diazabicyclo[3.2.1]octan-3-yl)-5-chloro-7-(thiazol-2-yl)-4-(trifluoromethoxy)benzo[d]oxazole], < 100 nM. As for `CCOC(=O)c1cc(-c2nccs2)c2oc(N3CC4CCC(C3)N4)nc2c1C(F)(F)F` [Example 163, Ethyl 2-(3,8-diazabicyclo[3.2.1]octan-3-yl)-7-(thiazol-2-yl)-4-(trifluoromethyl)benzo[d]oxazole-5-carboxylate], the IC50 is < 100 nM. Regarding `COC(C)c1ccc(-c2nccs2)c2oc(N3CC4CCCC(C3)N4)nc12` (stereo not drawn) [Example 243, 2-(3,9-Diazabicyclo[3.3.1]nonan-3-yl)-4-(1-methoxyethyl)-7-(thiazol-2-yl)benzo[d]oxazole], the IC50 is < 100 nM. For the compound `c1csc(-c2ccc(OC3CCOC3)c3nc(N4CC5CCC(C4)N5)oc23)n1` (stereo not drawn) [Example 84, 2-(3,8-Diazabicyclo[3.2.1]octan-3-yl)-4-((tetrahydrofuran-3-yl)oxy)-7-(thiazol-2-yl)benzo[d]oxazole], the IC50 is < 100 nM. Same read-out and setting: as for `CS(=O)(=O)c1cc(-c2nccs2)c2oc(N3CC4CCC(C3)N4)nc2c1` [Example 45, 2-(3,8-Diazabicyclo[3.2.1]octan-3-yl)-5-(methylsulfonyl)-7-(thiazol-2-yl)benzo[d]oxazole], the figure is < 100 nM; as for `OC(c1cc(-c2nccs2)c2oc(N3CC4CCC(C3)N4)nc2c1OC(F)(F)F)C(F)F` (stereo not drawn) [Example 276, 1-(2-(3,8-Diazabicyclo[3.2.1]octan-3-yl)-7-(thiazol-2-yl)-4-(trifluoromethoxy)benzo[d]oxazol-5-yl)-2,2-difluoroethan-1-ol], < 100 nM. As to `OC(c1cc(-c2nccs2)c2oc(N3CC4CC(C3)N4)nc2c1OC(F)(F)F)C(F)F` (stereo not drawn) [Example 293, 1-(2-(3,6-Diazabicyclo[3.1.1]heptan-3-yl)-7-(thiazol-2-yl)-4-(trifluoromethoxy)benzo[d]oxazol-5-yl)-2,2-difluoroethan-1-ol], the IC50 is < 100 nM. `COC(C)c1cc(-c2nccs2)c2oc(N3CC4CC(C3)N4)nc2c1OC(F)(F)F` (stereo not drawn) [Example 211, 2-(3,6-Diazabicyclo[3.1.1]heptan-3-yl)-5-(1-methoxyethyl)-7-(thiazol-2-yl)-4-(trifluoromethoxy)benzo[d]oxazole]: the IC50 was < 100 nM. For `COC(C)(c1ccc(-c2nccs2)c2oc(N3CC4CC(C3)N4)nc12)C(F)(F)F` (stereo not drawn) [Example 235, 2-(3,6-Diazabicyclo[3.1.1]heptan-3-yl)-7-(thiazol-2-yl)-4-(1,1,1-trifluoro-2-methoxypropan-2-yl)benzo[d]oxazole], the IC50 was < 100 nM.

With `Oc1cc(-c2nccs2)c2oc(N3CC4CCC(C3)N4)nc2c1` [Example 63, 2-(3,8-Diazabicyclo[3.2.1]octan-3-yl)-7-(thiazol-2-yl) benzo[d]oxazol-5-ol], the IC50 is < 100 nM.

Turning to `COCc1cc(-c2nccs2)c2oc(N3CC4CCC(C3)N4)nc2c1C(F)(F)F` [Example 167, 2-(3,8-Diazabicyclo[3.2.1]octan-3-yl)-5-(methoxymethyl)-7-(thiazol-2-yl)-4-(trifluoromethyl)benzo[d]oxazole], the IC50 was < 100 nM. Turning to `O=C(O)COc1cc(-c2nccs2)c2oc(N3CC4CCC(C3)N4)nc2c1` [Example 74, 2-((2-(3,8-Diazabicyclo[3.2.1]octan-3-yl)-7-(thiazol-2-yl)benzo[d]oxazol-5-yl)oxy)acetic acid], the IC50 was < 100 nM. With `CN(C)Cc1cc(-c2nccs2)c2oc(N3CC4CCC(C3)N4)nc2c1` [Example 169, 1-(2-(3,8-Diazabicyclo[3.2.1]octan-3-yl)-7-(thiazol-2-yl)benzo[d]oxazol-5-yl)-N,N-dimethylmethanamine], the IC50 is < 100 nM.

Turning to `C[S+]([O-])c1cc(-c2nccs2)c2oc(N3CC4CC(C3)N4)nc2c1` (stereo not drawn) [Example 43, 2-(3,6-Diazabicyclo[3.1.1]heptan-3-yl)-5-(methylsulfinyl)-7-(thiazol-2-yl)benzo[d]oxazole], the IC50 was < 100 nM.

As for `FC(F)Oc1ccc(-c2nccs2)c2oc(N3CC4CCC(C3)N4)nc12` [Example 263, 2-(3,8-Diazabicyclo[3.2.1]octan-3-yl)-4-(difluoromethoxy)-7-(thiazol-2-yl)benzo[d]oxazole], the IC50 was < 100 nM. For the compound `O=C(O)c1ccc(-c2nccs2)c2oc(N3CC4CCC(C3)N4)nc12` [Example 238, 2-(3,8-Diazabicyclo[3.2.1]octan-3-yl)-7-(thiazol-2-yl) benzo[d]oxazole-4-carboxylic acid], the IC50 is < 100 nM.

Turning to `OCCOC(c1ccc(-c2nccs2)c2oc(N3CC4CCC(C3)N4)nc12)C(F)(F)F` (stereo not drawn) [Example 225, 2-(1-(2-(3,8-Diazabicyclo[3.2.1]octan-3-yl)-7-(thiazol-2-yl)benzo[d]oxazol-4-yl)-2,2,2-trifluoroethoxy)ethan-1-ol], the IC50 is < 100 nM. As to `FC(F)(F)COC(c1ccc(-c2nccs2)c2oc(N3CC4CCC(C3)N4)nc12)C(F)(F)F` (stereo not drawn) [Example 221, 2-(3,8-Diazabicyclo[3.2.1]octan-3-yl)-7-(thiazol-2-yl)-4-(2,2,2-trifluoro-1-(2,2,2-trifluoroethoxy)ethyl)benzo[d]oxazole], the IC50 was < 100 nM. For the compound `CN(C)C(=O)c1cc(-c2nccs2)c2oc(N3CC4CCC(C3)N4)nc2c1` [Example 94, 2-(3,8-Diazabicyclo[3.2.1]octan-3-yl)-N,N-dimethyl-7-(thiazol-2-yl)benzo[d]oxazole-5-carboxamide], the IC50 was < 100 nM. Same read-out and setting: as for `CC(C)(O)c1cc(-c2nccs2)c2oc(N3CC4CCCC(C3)N4)nc2c1OC(F)(F)F` [Example 197, 2-(2-(3,9-Diazabicyclo[3.3.1]nonan-3-yl)-7-(thiazol-2-yl)-4-(trifluoromethoxy)benzo[d]oxazol-5-yl)propan-2-ol], the figure is < 100 nM; as for `OC(c1cc(-c2nccs2)c2oc(N3CC4CC(C3)N4)nc2c1)C(F)(F)F` (stereo not drawn) [Example 135, 1-(2-(3,6-Diazabicyclo[3.1.1]heptan-3-yl)-7-(thiazol-2-yl)benzo[d]oxazol-5-yl)-2,2,2-trifluoroethan-1-ol], < 100 nM; as for `CC(C)(O)COC(c1ccc(-c2nccs2)c2oc(N3CC4CC(C3)N4)nc12)C(F)(F)F` (stereo not drawn) [Example 255], < 100 nM. Turning to `CC(=O)Nc1cc(-c2nccs2)c2oc(N3CC4CCC(C3)N4)nc2c1` [Example 50, N-(2-(3,8-diazabicyclo[3.2.1]octan-3-yl)-7-(thiazol-2-yl)benzo[d]oxazol-5-yl)acetamide], the IC50 is < 100 nM. Consider `CC(O)c1cc(-c2nccs2)c2oc(N3CC4CCC(C3)N4)nc2c1C(F)(F)F` (stereo not drawn) [Example 181, 1-(2-(3,8-Diazabicyclo[3.2.1]octan-3-yl)-7-(thiazol-2-yl)-4-(trifluoromethyl)benzo[d]oxazol-5-yl)ethan-1-ol], for which the IC50 was < 100 nM. As to `FC(F)(F)Oc1cc(-c2nccs2)c2oc(N3CC4CCCC(C3)N4)nc2c1` [Example 55, 2-(3,9-Diazabicyclo[3.3.1]nonan-3-yl)-7-(thiazol-2-yl)-5-(trifluoromethoxy)benzo[d]oxazole], the IC50 is < 100 nM.

The same experiment, now with this note: scintillation proximity assay; class symbols; read-out: PDE4 Inhibitory Activity.
As to `ON1C2CCC1CN(c1nc3c(OC(F)(F)F)c(Cl)cc(-c4nccs4)c3o1)C2` [Example 375, 3-(5-chloro-7-(thiazol-2-yl)-4-(trifluoro-methoxy)benzo[d]oxazol-2-yl)-3,8-diazabicyclo[3.2.1] octan-8-ol], the IC50 is < 100 nM.
